Assay results published in patent US10988478B1, “Pyrazolo[1,5a]pyrimidine derivatives as IRAK4 modulators” (Genentech, Inc., priority 2015, dated 2021).
pKi: −log10 of the molar value.

Target: human IRAK4 (Homo sapiens (Human), UniProt Q9NWZ3)
Assay: IRAK4 kinase inhibition, Transcreener fluorescence polarization ADP assay
Type: biochemical
Details: recombinant full-length His6-IRAK4; 125 uM ATP; 90 min; Ki computed using ATP Km 642 uM
Protocol: Compounds were assayed for inhibition of human IRAK4 and IRAK1 catalytic activity using recombinant enzyme produced from insect cells. Full-length IRAK4 protein, carrying an N-terminal His6-Tag, was obtained from Life Technologies (Carlsbad, Calif., USA). The IRAK1 construct was produced internally and was comprised of IRAK1 residues Arg194 to Ser712, preceded by an NH2-terminal His6 tag and the coding sequence for glutathione-S-transferase.

human IRAK4, sequence (Q9NWZ3 whole entry): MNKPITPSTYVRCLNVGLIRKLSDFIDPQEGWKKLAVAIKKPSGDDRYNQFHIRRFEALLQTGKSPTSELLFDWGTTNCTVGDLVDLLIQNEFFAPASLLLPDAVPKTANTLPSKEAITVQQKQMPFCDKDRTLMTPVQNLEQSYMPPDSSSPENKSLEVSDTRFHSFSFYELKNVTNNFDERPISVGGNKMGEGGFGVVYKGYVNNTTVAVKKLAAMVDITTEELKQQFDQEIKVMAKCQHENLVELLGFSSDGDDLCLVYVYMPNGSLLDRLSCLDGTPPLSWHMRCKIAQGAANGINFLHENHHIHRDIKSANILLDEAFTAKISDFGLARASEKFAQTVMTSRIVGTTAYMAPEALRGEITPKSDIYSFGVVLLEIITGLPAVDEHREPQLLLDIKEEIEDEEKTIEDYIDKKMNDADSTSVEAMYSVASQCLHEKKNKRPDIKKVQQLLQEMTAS

pKi	Structure (SMILES)
7.80	CN1CC[C@]2(Cc3cc(NC(=O)c4cnn5cccnc45)c(N4CCOCC4)cc3O2)C1 [Example 390, (R)—N-(1′-methyl-6-morpholino-3H-spiro[benzofuran-2,3′-pyrrolidin]-5-yl)pyrazolo[1,5-a]pyrimidine-3-carboxamide]
6.49	CC1(C)Cc2cc(NC(=O)c3cnn4cccnc34)c(-c3ccc(=O)[nH]c3)cc2O1 [Example 113, N-[2,2-Dimethyl-6-(6-oxo-1H-pyridin-3-yl)-3H-benzofuran-5-yl]pyrazolo[1,5-a]pyrimidine-3-carboxamide]
6.44	C[C@@]1(CO)Cc2cc(NC(=O)c3cnn4cccnc34)c(C(F)F)cc2O1 [Example 73, N-[(2S)-6-(Difluoromethyl)-2-(hydroxymethyl)-2-methyl-3H-benzofuran-5-yl]pyrazolo[1,5-a]pyrimidine-3-carboxamide]
7.42	C[C@@]1(O)COc2cc(N3CCC(C#N)CC3)c(NC(=O)c3cnn4cccnc34)cc2C1 [Example 427, (S)-N-(7-(4-cyanopiperidin-1-yl)-3-hydroxy-3-methylchroman-6-yl)pyrazolo[1,5-a]pyrimidine-3-carboxamide]
7.68	C[C@@]1(CO)Cc2cc(NC(=O)c3cnn4cccnc34)c(N3CC[C@H](F)C3)cc2O1 [Example 56, N-[(2S)-6-[(3S)-3-Fluoropyrrolidin-1-yl]-2-(hydroxymethyl)-2-methyl-3H-benzofuran-5-yl]pyrazolo[1,5-a]pyrimidine-3-carboxamide]
8.48	C[C@@]1(CO)Cc2cc(NC(=O)c3cnn4cccnc34)c(N3CCC(CO)CC3)cc2O1 [Example 130, (S)—N-(2-(hydroxymethyl)-6-(4-(hydroxymethyl)piperidin-1-yl)-2-methyl-2,3-dihydrobenzofuran-5-yl)pyrazolo[1,5-a]pyrimidine-3-carboxamide]
7.03	CC1(C)Cc2cc(NC(=O)c3cnn4cccnc34)c(N3CC[C@@]4(CCOC4)C3)cc2O1 (single isomer, unassigned) [Example 222]
8.38	CC(C)(O)[C@@]1(C)Cc2cc(NC(=O)c3cnn4cccnc34)c(N3CCN(CC(N)=O)CC3)cc2O1 [Example 525, N-[(2R)-6-[4-(2-amino-2-oxo-ethyl)piperazin-1-yl]-2-(1-hydroxy-1-methyl-ethyl)-2-methyl-3H-benzofuran-5-yl]pyrazolo[1,5-a]pyrimidine-3-carboxamide]
7.92	CC1(C)Cc2cc(NC(=O)c3cnn4cccnc34)c(N3CCCC3)cc2O1 [Example 214, N-(2,2-dimethyl-6-(pyrrolidin-1-yl)-2,3-dihydrobenzofuran-5-yl)pyrazolo[1,5-a]pyrimidine-3-carboxamide]
7.92	C[C@H](CN1Cc2cc(NC(=O)c3cnn4cccnc34)c(N3CCOCC3)cc2C1=O)N1CCOCC1 [Example 552, N-[6-morpholino-2-[(2R)-2-morpholinopropyl]-1-oxo-isoindolin-5-yl]pyrazolo[1,5-a]pyrimidine-3-carboxamide]
6.59	CC1(C)Oc2cc(NC(=O)c3cnn4cccnc34)c(N3CCOCC3)cc2C1=O [Example 359, N-(2,2-dimethyl-5-morpholino-3-oxo-2,3-dihydrobenzofuran-6-yl)pyrazolo[1,5-a]pyrimidine-3-carboxamide]
8.51	CC1(C)Cc2cc(NC(=O)c3cnn4cccnc34)c(N3CCC(O)(CC(N)=O)CC3)cc2O1 [Example 536, N-[6-[4-(2-amino-2-oxo-ethyl)-4-hydroxy-1-piperidyl]-2,2-dimethyl-3H-benzofuran-5-yl]pyrazolo[1,5-a]pyrimidine-3-carboxamide]
8.23	O=C(Nc1cc2c(cc1N1CCOCC1)C(=O)N([C@@H]1CCC[C@H]1CO)C2)c1cnn2cccnc12 [Example 567, N-(2-((1R,2R)-2-(hydroxymethyl)cyclopentyl)-6-morpholino-1-oxoisoindolin-5-yl)pyrazolo[1,5-a]pyrimidine-3-carboxamide]
7.82	CC1(C)Cc2cc(NC(=O)c3cnn4cccnc34)c(N3C[C@@H]4[C@H](C3)[C@H]4C(N)=O)cc2O1 [Example 208, N-(6-((1R,5S,6r)-6-carbamoyl-3-azabicyclo[3.1.0]hexan-3-yl)-2,2-dimethyl-2,3-dihydrobenzofuran-5-yl)pyrazolo[1,5-a]pyrimidine-3-carboxamide]
8.52	C[C@]1(O)COc2cc(N3CCN(CC(N)=O)CC3)c(NC(=O)c3cnn4cccnc34)cc2C1 [Example 424, (R)-N-(7-(4-(2-amino-2-oxoethyl)piperazin-1-yl)-3-hydroxy-3-methylchroman-6-yl)pyrazolo[1,5-a]pyrimidine-3-carboxamide]
7.33	CC1(C)Cc2cc(NC(=O)c3cnn4cccnc34)c(N3CCC4(CC3)CN(CC(F)(F)F)C4)cc2O1 [Example 249, N-(2,2-dimethyl-6-(2-(2,2,2-trifluoroethyl)-2,7-diazaspiro[3.5]nonan-7-yl)-2,3-dihydrobenzofuran-5-yl)pyrazolo[1,5-a]pyrimidine-3-carboxamide]

pKi	Structure (SMILES)
7.85	C[C@@]1(CO)CCc2cc(NC(=O)c3cnn4cccnc34)c(N3CCOCC3)cc2O1 (single isomer, unassigned) [Example 433]
8.12	CNc1cnc2c(C(=O)Nc3cc4c(cc3N3CCN(CC(F)F)CC3)OC3(CCOCC3)C4)cnn2c1 [Example 383, N-(6-(4-(2,2-difluoroethyl)piperazin-1-yl)-2′,3′,5′,6′-tetrahydro-3H-spiro[benzofuran-2,4′-pyran]-5-yl)-6-(methylamino)pyrazolo[1,5-a]pyrimidine-3-carboxamide]
8.70	C[C@]1(CO)Cc2cc(NC(=O)c3cnn4cccnc34)c(N3CCC(C#N)CC3)cc2O1 [Example 335, (R)-N-(6-(4-cyanopiperidin-1-yl)-2-(hydroxymethyl)-2-methyl-2,3-dihydrobenzofuran-5-yl)pyrazolo[1,5-a]pyrimidine-3-carboxamide]
8.82	CC(C)(O)[C@H](F)CN1Cc2cc(NC(=O)c3cnn4cc(Br)cnc34)c(N3CCOCC3)cc2C1=O [Example 269, 6-bromo-N-[2-[(2R)-2-fluoro-3-hydroxy-3-methyl-butyl]-6-morpholino-1-oxo-isoindolin-5-yl]pyrazolo[1,5-a]pyrimidine-3-carboxamide]
8.37	O=C(Nc1cc2c(cc1N1CCC(F)(CO)CC1)O[C@](CO)(C(F)(F)F)C2)c1cnn2cccnc12 (single isomer, unassigned) [Example 318]
7.22	C[C@]1(CO)Cc2cc(NC(=O)c3cnn4cccnc34)c(N3CC[C@H](F)C3)cc2O1 [Example 57, N-[(2R)-6-[(3S)-3-Fluoropyrrolidin-1-yl]-2-(hydroxymethyl)-2-methyl-3H-benzofuran-5-yl]pyrazolo[1,5-a]pyrimidine-3-carboxamide]
6.89	Cn1cc(COc2cc3c(cc2NC(=O)c2cnn4cccnc24)C[C@@](C)(O)CO3)cn1 (single isomer, unassigned) [Example 430]
7.12	O=C(Nc1cc2c(cc1N1CCOCC1)OC(CO)(CO)C2)c1cnn2cccnc12 [Example 394, N-(2,2-bis(hydroxymethyl)-6-morpholino-2,3-dihydrobenzofuran-5-yl)pyrazolo[1,5-a]pyrimidine-3-carboxamide]
8.09	CC1(C)Cc2cc(NC(=O)c3cnn4cccnc34)c(OC[C@H]3[C@@H]4CNC[C@@H]43)cc2O1 [Example 295, N-(6-(((1R,5S,6R)-3-azabicyclo[3.1.0]hexan-6-yl)methoxy)-2,2-dimethyl-2,3-dihydrobenzofuran-5-yl)pyrazolo[1,5-a]pyrimidine-3-carboxamide]
8.01	CC1(C)Cc2cc(NC(=O)c3cnn4cccnc34)c(N3CC(O)C(F)(F)C3)cc2O1 (centres unmarked) [Example 68, N-(6-(3,3-Difluoro-4-hydroxypyrrolidin-1-yl)-2,2-dimethyl-2,3-dihydrobenzofuran-5-yl)pyrazolo[1,5-a]pyrimidine-3-carboxamide]
7.96	C[C@@]1(CO)Cc2cc(NC(=O)c3cnn4cccnc34)c(N3CCC4(CC3)CNC4=O)cc2O1 [Example 321, (S)-N-(2-(hydroxymethyl)-2-methyl-6-(1-oxo-2,7-diazaspiro[3.5]nonan-7-yl)-2,3-dihydrobenzofuran-5-yl)pyrazolo[1,5-a]pyrimidine-3-carboxamide]
8.00	O=C(Nc1cc2c(cc1N1CCOCC1)C(=O)N(C[C@H]1C[C@H](O)C1)C2)c1cnn2cccnc12 [Example 262, N-[2-[(3-Hydroxycyclobutyl)methyl]-6-morpholino-1-oxo-isoindolin-5-yl]pyrazolo[1,5-a]pyrimidine-3-carboxamide]
8.60	C[C@H](C(N)=O)N1CCN(c2cc3c(cc2NC(=O)c2cnn4cccnc24)CC(C)(C)O3)CC1 [Example 472, N-[6-[4-[(1R)-2-amino-1-methyl-2-oxo-ethyl]piperazin-1-yl]-2,2-dimethyl-3H-benzofuran-5-yl]pyrazolo[1,5-a]pyrimidine-3-carboxamide]
7.51	CN(C)C(=O)C1(C)Cc2cc(NC(=O)c3cnn4cccnc34)c(N3CCOCC3)cc2O1 (centres unmarked) [Example 23, N-(2-(Dimethylcarbamoyl)-2-methyl-6-morpholino-2,3-dihydrobenzofuran-5-yl)pyrazolo[1,5-a]pyrimidine-3-carboxamide]
9.08	CC(C)(O)[C@H](F)CN1Cc2cc(NC(=O)c3cnn4cccnc34)c(OCC3CC3)cc2C1=O [Example 496, N-[6-(Cyclopropylmethoxy)-2-[(2R)-2-fluoro-3-hydroxy-3-methyl-butyl]-1-oxo-isoindolin-5-yl]pyrazolo[1,5-a]pyrimidine-3-carboxamide]

Structure (SMILES)	pKi
CC1(C)Cc2cc(NC(=O)c3cnn4cccnc34)c(N3CCC(c4nnco4)CC3)cc2O1 [Example 235, N-(6-(4-(1,3,4-Oxadiazol-2-yl)piperidin-1-yl)-2,2-dimethyl-2,3-dihydrobenzofuran-5-yl)pyrazolo[1,5-a]pyrimidine-3-carboxamide]	8.40
